Counter-ions that a name gives are not always drawn.
What follows are compounds tested against T1, human GPR4 (Homo sapiens, UniProt P46093) (assay: Cell-based assay for human GPR4 activity (pH-induced cAMP formation, HTRF)). Settings: HeLa cells stably expressing human GPR4, pH-induced cAMP formation.
T1 construct: expressed in transfected cells
Experimental: a) Cell-Based Assay for Human GPR4 Activity
HeLa cells stably expressing human GPR4 were established by transfecting the cells with a construct containing the human GPR4 coding sequence. The cells were grown in DMEM/HAM's F12 medium supplemented with 10% fetal calf serum (FCS), 100 u/ml penicillin, 100 μg/ml streptomycin and 400 μg/ml G418 and 10 mM Hepes pH 8.0. pH-induced formation of cAMP was determined using the HTRF technology as provided by CisBio Inc. The cells were seeded in 384-well plates and cultured for 24 hours at 37° C., 5% CO2 before performing the assay. Medium was removed and 10 μl buffer A (HBS, 10 mM Hepes, pH 8, 2 mM IBMX) was added. For compound testing, buffer A with 2× concentrated compounds was used. Cells were incubated for 15 min at room temperature. 10 μl buffer B (HBS, 30 mM Hepes, specific pH) was added to reach the appropriate final pH for stimulation (see below) and incubation was continued for 15 min at room temperature. […] HBS: 130 mM NaCl, 0.9 mM NaH2PO4, 5.4 mM KCl, 0.8 mM MgSO4, CaCl2 1.8 mM, 25 mM glucose, 10-30 mM Hepes. Adjustment of HBS buffers: Bf A Bf B Final stimulation pH (1 volume buffer A+1 volume buffer B)
Compounds were diluted from fresh stock solutions at 10 mM in DMSO to 2 mM and then used for serial dilutions in DMSO.

T1 sequence (P46093 whole entry): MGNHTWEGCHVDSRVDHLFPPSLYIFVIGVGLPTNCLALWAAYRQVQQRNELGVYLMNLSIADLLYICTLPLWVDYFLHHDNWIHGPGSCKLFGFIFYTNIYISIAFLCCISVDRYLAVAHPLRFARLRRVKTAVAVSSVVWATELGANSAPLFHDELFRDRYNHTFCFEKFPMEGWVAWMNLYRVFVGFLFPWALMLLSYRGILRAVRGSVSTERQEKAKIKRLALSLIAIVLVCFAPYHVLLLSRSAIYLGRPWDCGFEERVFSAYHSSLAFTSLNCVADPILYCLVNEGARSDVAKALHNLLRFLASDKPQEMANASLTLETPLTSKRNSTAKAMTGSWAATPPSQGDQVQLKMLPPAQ

Row | IC50 | Compound
1 | 178 nM | CCc1nc2c(C)cc(C)nc2n1Cc1ccc(CCCN2CCN(CC3CCC3)CC2)cc1 [Example 17, 3-{4-[3-(4-Cyclobutylmethyl-piperazin-1-yl)-propyl]-benzyl}-2-ethyl-5,7-dimethyl-3H-imidazo[4,5-b]pyridine dihydrochloride]
2 | 552 nM | CCc1nc2c(C)cc(C)nc2n1Cc1ccc(/C=C/CN2CCN(CCOC)CC2)cc1 [Example 62, 2-Ethyl-3-(4-{(E)-3-[4-(2-methoxy-ethyl)-piperazin-1-yl]-propenyl}-benzyl)-5,7-dimethyl-3H-imidazo[4,5-b]pyridine dihydrochloride]
3 | 114 nM | CCc1nc2c(C)cc(C)nc2n1Cc1ccc(/C=C/CN2CCOC(CN)C2)cc1 (centres unmarked) [Example 78, C-(4-{(E)-3-[4-(2-Ethyl-5,7-dimethyl-imidazo[4,5-b]pyridin-3-ylmethyl)-phenyl]-allyl}-morpholin-2-yl)-methylamine dihydrochloride]
4 | 410 nM | CCc1nc2c(C)cc(C)nc2n1Cc1ccc(/C=C/CN2CCN(C3CC3)CC2)cc1 [Example 47, 3-{4-[(E)-3-(4-Cyclopropyl-piperazin-1-yl)-propenyl]-benzyl}-2-ethyl-5,7-dimethyl-3H-imidazo[4,5-b]pyridine dihydrochloride]
5 | 181 nM | Cc1cc(C)c2nc(C3CC3)n(Cc3ccc(/C=C/CN4CCN(C(C)C)CC4)cc3)c2n1 [Example 84, 2-Cyclopropyl-3-{4-[(E)-3-(4-isopropyl-piperazin-1-yl)-propenyl]-benzyl}-5,7-dimethyl-3H-imidazo[4,5-b]pyridine dihydrochloride]
6 | 261 nM | CCc1nc2c(C)cc(C)nc2n1Cc1ccc(/C=C/CN2CCN(CC)CC2)cc1 [Example 44, 2-Ethyl-3-{4-[(E)-3-(4-ethyl-piperazin-1-yl)-propenyl]-benzyl}-5,7-dimethyl-3H-imidazo[4,5-b]pyridine dihydrochloride]
7 | 121 nM | CCc1nc2c(C)cc(C)nc2n1Cc1ccc(/C=C/CN2CCN(C3CCCCC3)CC2)cc1 [Example 57, 3-{4-[(E)-3-(4-Cyclohexyl-piperazin-1-yl)-propenyl]-benzyl}-2-ethyl-5,7-dimethyl-3H-imidazo[4,5-b]pyridine dihydrochloride]
8 | 222 nM | CCc1nc2c(C)cc(C)nc2n1Cc1ccc(/C=C/CN2CCN(CCN3CCOCC3)CC2)cc1 [Example 66, 2-Ethyl-5,7-dimethyl-3-(4-{(E)-3-[4-(2-morpholin-4-yl-ethyl)-piperazin-1-yl]-propenyl}-benzyl)-3H-imidazo[4,5-b]pyridine trihydrochloride]
9 | 499 nM | CCc1nc2c(C)cc(C)nc2n1Cc1ccc(/C=C/CN2CCN(CCN(C(C)C)C(C)C)CC2)cc1 [Example 61, [2-(4-{(E)-3-[4-(2-Ethyl-5,7-dimethyl-imidazo[4,5-b]pyridin-3-ylmethyl)-phenyl]-allyl}-piperazin-1-yl)-ethyl]-diisopropyl-amine trihydrochloride]
10 | 60 nM | CCc1nc2c(C)cc(C)nc2n1Cc1ccc(/C=C/CCN2CCN(C(C)(C)C)CC2)cc1 [Example 104, 3-{4-[(E)-4-(4-tert-Butyl-piperazin-1-yl)-but-1-enyl]-benzyl}-2-ethyl-5,7-dimethyl-3H-imidazo[4,5-b]pyridine dihydrochloride]
11 | 477 nM | CCc1nc2c(C)cc(C)nc2n1Cc1ccc(/C=C/CN2CCC(O)CC2)cc1 [Example 36, 1-{(E)-3-[4-(2-Ethyl-5,7-dimethyl-imidazo[4,5-b]pyridin-3-ylmethyl)-phenyl]-allyl}-piperidin-4-ol]
12 | 165 nM | CCc1nc2c(C)cc(C)nc2n1Cc1ccc(/C=C/CN2CCN(C3CCCC3)CC2)cc1 [Example 56, 3-{4-[(E)-3-(4-Cyclopentyl-piperazin-1-yl)-propenyl]-benzyl}-2-ethyl-5,7-dimethyl-3H-imidazo[4,5-b]pyridine]
13 | 255 nM | CCc1nc2c(C)cc(C)nc2n1Cc1ccc(/C=C/CN2CCN(CCN(C)C)CC2)cc1 [Example 58, [2-(4-{(E)-3-[4-(2-Ethyl-5,7-dimethyl-imidazo[4,5-b]pyridin-3-ylmethyl)-phenyl]-allyl}-piperazin-1-yl)-ethyl]-dimethyl-amine trihydrochloride]
14 | 177 nM | CCc1nc2c(C)cc(C)nc2n1Cc1ccc(/C=C/CN2CCC(N3CCCC3)CC2)cc1 [Example 32, 2-Ethyl-5,7-dimethyl-3-{4-[(E)-3-(4-pyrrolidin-1-yl-piperidin-1-yl)-propenyl]-benzyl}-3H-imidazo[4,5-b]pyridine]
15 | 535 nM | CCc1nc2c(C)cc(C)nc2n1Cc1ccc(/C=C/CN2CCN(CCCF)CC2)cc1 [Example 68, 2-Ethyl-3-(4-{(E)-3-[4-(3-fluoro-propyl)-piperazin-1-yl]-propenyl}-benzyl)-5,7-dimethyl-3H-imidazo[4,5-b]pyridine]
16 | 86 nM | CCc1nc2c(C)cc(C)nc2n1Cc1ccc(/C=C/CN2CCN(CC3CCC3)CC2)cc1 [Example 55, 3-{4-[(E)-3-(4-Cyclobutylmethyl-piperazin-1-yl)-propenyl]-benzyl}-2-ethyl-5,7-dimethyl-3H-imidazo[4,5-b]pyridine dihydrochloride]

Second part, the compound before the results:

Row | Compound | IC50
17 | CCc1nc2c(C)cc(C)nc2n1Cc1ccc(CCCN2CCN(CCN(C)C)CC2)cc1 [Example 21, [2-(4-{3-[4-(2-Ethyl-5,7-dimethyl-imidazo[4,5-b]pyridin-3-ylmethyl)-phenyl]-propyl}-piperazin-1-yl)-ethyl]-dimethyl-amine dihydrochloride] | 345 nM
18 | CCc1nc2c(C)cc(C)nc2n1Cc1ccc(/C=C/CN2CCC(c3c[nH]c4ccccc34)CC2)cc1 [Example 40, 2-Ethyl-3-(4-{(E)-3-[4-(1H-indol-3-yl)-piperidin-1-yl]-propenyl}-benzyl)-5,7-dimethyl-3H-imidazo[4,5-b]pyridine hydrochloride] | 704 nM
19 | CCc1nc2c(C)cc(C)nc2n1Cc1ccc(CCCN2CCN(C(C)C)CC2)cc1 [Example 8, 2-Ethyl-3-{4-[3-(4-isopropyl-piperazin-1-yl)-propyl]-benzyl}-5,7-dimethyl-3H-imidazo[4,5-b]pyridine dihydrochloride] | 274 nM
20 | Cc1cc(C)c2nc(C(F)(F)F)n(Cc3ccc(/C=C/CN4CCC(N5CCOCC5)CC4)cc3)c2n1 [Example 89, 5,7-Dimethyl-3-{4-[(E)-3-(4-morpholin-4-yl-piperidin-1-yl)-propenyl]-benzyl}-2-trifluoromethyl-3H-imidazo[4,5-b]pyridine dihydrochloride] | 182 nM
21 | CCCCN1CCN(CCCc2ccc(Cn3c(CC)nc4c(C)cc(C)nc43)cc2)CC1 [Example 10, 3-{4-[3-(4-Butyl-piperazin-1-yl)-propyl]-benzyl}-2-ethyl-5,7-dimethyl-3H-imidazo[4,5-b]pyridine] | 123 nM
22 | CCc1nc2c(C)cc(C)nc2n1Cc1ccc(CCCN2C[C@H]3C[C@@H]2CN3CC(C)C)cc1 [Example 27, 2-Ethyl-3-{4-[3-((1R,4R)-5-isobutyl-2,5-diaza-bicyclo[2.2.1]hept-2-yl)-propyl]-benzyl}-5,7-dimethyl-3H-imidazo[4,5-b]pyridine dihydrochloride] | 411 nM
23 | CCc1nc2c(C)cc(C)nc2n1Cc1ccc(/C=C/CN2CCN(Cc3ccc(OC)c(OC)c3)CC2)cc1 [Example 67, 3-(4-{(E)-3-[4-(3,4-Dimethoxy-benzyl)-piperazin-1-yl]-propenyl}-benzyl)-2-ethyl-5,7-dimethyl-3H-imidazo[4,5-b]pyridine trihydrochloride] | 407 nM
24 | CCc1nc2c(C)cc(C)nc2n1Cc1ccc(CCCN2CCN(C(CC)CC)CC2)cc1 [Example 15, 2-Ethyl-3-(4-{3-[4-(1-ethyl-propyl)-piperazin-1-yl]-propyl}-benzyl)-5,7-dimethyl-3H-imidazo[4,5-b]pyridine] | 50 nM
25 | CCc1nc2c(C)cc(C)nc2n1Cc1ccc(CCCN2CCN(C)C[C@@H]2C(C)C)cc1 [Example 24, 2-Ethyl-3-{4-[3-((S)-2-isopropyl-4-methyl-piperazin-1-yl)-propyl]-benzyl}-5,7-dimethyl-3H-imidazo[4,5-b]pyridine dihydrochloride] | 961 nM
26 | CCc1nc2c(C)cc(C)nc2n1Cc1ccc(/C=C(\F)CN2CCC(N3CCCCC3)CC2)cc1 [Example 93, 1′-{(Z)-3-[4-(2-Ethyl-5,7-dimethyl-imidazo[4,5-b]pyridin-3-ylmethyl)-phenyl]-2-fluoro-allyl}-[1,4′]bipiperidinyl dihydrochloride] | 29 nM
27 | CCCC(C)N1CCN(CCCc2ccc(Cn3c(CC)nc4c(C)cc(C)nc43)cc2)CC1 (centres unmarked) [Example 14, 2-Ethyl-5,7-dimethyl-3-(4-{3-[4-(1-methyl-butyl)-piperazin-1-yl]-propyl}-benzyl)-3H-imidazo[4,5-b]pyridine] | 217 nM
28 | CCc1nc2c(C)cc(C)nc2n1Cc1ccc(CCCN2CCN(C(C)(C)C)CC2)cc1 [Example 12, 3-{4-[3-(4-tert-Butyl-piperazin-1-yl)-propyl]-benzyl}-2-ethyl-5,7-dimethyl-3H-imidazo[4,5-b]pyridine] | 53 nM
29 | CCc1nc2c(C)cc(C)nc2n1Cc1ccc(/C=C/C(=O)N2CCC(N(CC)CC)CC2)cc1 [Example 96, (E)-1-(4-Diethylamino-piperidin-1-yl)-3-[4-(2-ethyl-5,7-dimethyl-imidazo[4,5-b]pyridin-3-ylmethyl)-phenyl]-propenone] | 994 nM

Reference: patent US20090291942A1, “IMIDAZO PYRIDINE DERIVATIVES” (priority 2008, published 2009)
